# Data reported in patent publication US8426448B2, “1,5-diphenyl-pyrrolidin-2-one compounds as CB-1 ligands” (Eli Lilly and Company, priority 2008, dated 2013).
# Where a name gives a salt, the structure may show the parent alone.
# Legend:
# [1] = biological target: T1, hCB-1 (Homo sapiens, UniProt P21554); assay: hCB1-Sf9 antagonist mode SPA GTP-γ-35S binding assay; format: biochemical; set-up: purchased Applied Cell Sciences, Rockville, Md; settings: Sf9 membrane 22.7 μg; antagonist mode vs methanandamide; read-out: hCB-1 SPA GTPγS Sf9 Membrane 22.7 μg Antagonist Kb
# Procedure: (§1) Compounds of the present invention may be tested for functional activity at the CB-1 and CB-2 receptors in both agonist and antagonist modes using SPA (Scintillation Proximity Assay) based GTP-γ-^35S binding assays. All assay components are prepared in assay buffer (20 mM HEPES, 100 mM NaCl, 5 mM MgCl2, pH 7.4) at room temperature. Semi-log dilutions of test compound are prepared in assay buffer containing BSA (0.125% final conc.) for the agonist mode assays. For the antagonist mode assays, test compounds are prepared in the same manner but also include an 80% efficacious dose of a full agonist (methanandamide). GTP-γ^35S binding for the antagonist assay may be measured in a 96 well format using a modification of an antibody capture technique previously described. (DeLapp, N W, et al. (1999) J Pharmacol Exp Ther 289:946-955.) The CB-2 receptor agonist activity may be measured using a similar method using hCB2-Sf9 membranes. The CB-1 receptor agonist activity may be measured using a whole membrane capture technique using hCB1-CHO membranes. All incubations are done at room temperature. […]
# (§2) Data are analyzed as follows: Background is subtracted from all wells. […] Percent antagonist inhibition is calculated by first normalizing the data to the signal generated by a saturating concentration of the full agonist (methanandamide). Then the data are analyzed using a 4-parameter logistic reduced fit (Activity Base™ and XLFit3™ from IDBS, Emeryville, Calif.). Kb values are determined using a modification of the Cheng-Prusoff relationship: Kb=IC50/(1+[agonist]/EC50), where “IC50” is determined from a four parameter fit of displacement curves, “[agonist]” is the agonist challenge concentration (nM), and “EC50” is determined from a four parameter fit of a full agonist concentration response curve (Cheng and Prusoff 1973). Mean Kb values are calculated as a mean of at least three independent determinations±standard error of the mean (SEM). […]
# [2] = biological target: T2, rCB-1 (Rattus norvegicus, UniProt P20272); assay: rCB1-CHO antagonist mode SPA GTP-γ-35S binding assay; format: biochemical; settings: antagonist mode vs methanandamide; read-out: rCB-1 SPA GTPγS CHO Membrane Antagonist Kb
# T2 construct: purchased Applied Cell Sciences, Rockville, Md; host or cells: CHO cell membranes
# Procedure: (§3) Compounds of the present invention may be tested for functional activity at the CB-1 and CB-2 receptors in both agonist and antagonist modes using SPA (Scintillation Proximity Assay) based GTP-γ-^35S binding assays. All assay components are prepared in assay buffer (20 mM HEPES, 100 mM NaCl, 5 mM MgCl2, pH 7.4) at room temperature. Semi-log dilutions of test compound are prepared in assay buffer containing BSA (0.125% final conc.) for the agonist mode assays. For the antagonist mode assays, test compounds are prepared in the same manner but also include an 80% efficacious dose of a full agonist (methanandamide). GTP-γ^35S binding for the antagonist assay may be measured in a 96 well format using a modification of an antibody capture technique previously described. (DeLapp, N W, et al. (1999) J Pharmacol Exp Ther 289:946-955.) The CB-2 receptor agonist activity may be measured using a similar method using hCB2-Sf9 membranes. The CB-1 receptor agonist activity may be measured using a whole membrane capture technique using hCB1-CHO membranes. All incubations are done at room temperature.
# (§4) hCB1-CHO or rCB1-CHO membranes (Applied Cell Sciences, Rockville, Md.) and GDP (1 μM final) are added to ice cold assay buffer and homogenized. […] Plates are then centrifuged at 700×g for 10 min. and the radioactivity counted.
# (§5) Data are analyzed as follows: Background is subtracted from all wells. […] Percent antagonist inhibition is calculated by first normalizing the data to the signal generated by a saturating concentration of the full agonist (methanandamide). Then the data are analyzed using a 4-parameter logistic reduced fit (Activity Base™ and XLFit3™ from IDBS, Emeryville, Calif.). Kb values are determined using a modification of the Cheng-Prusoff relationship: Kb=IC50/(1+[agonist]/EC50), where “IC50” is determined from a four parameter fit of displacement curves, “[agonist]” is the agonist challenge concentration (nM), and “EC50” is determined from a four parameter fit of a full agonist concentration response curve (Cheng and Prusoff 1973). […]
# [3] = test system: CYP3A; assay: Human CYP fingerprinting, ketoconazole inhibition; format: in vitro ADME; settings: 4 μM, human liver microsomes, 30 min, 10 μM ketoconazole
# Procedure: (§6) CYP fingerprinting is well established technique and is used as an indication of potential risk of drug-drug interactions in the pharmaceutical sciences. Compounds of the present invention may be assayed by well known methods, essentially as follows: Compounds are incubated at 37° C. at a final concentration of 4 μM with pooled, mixed gender, human liver microsomes and 1 mM NADPH (Nicotine Adenine Dinucleotide Phosphate) (final conc.) for 0 and 30 min. without any CYP inhibitor and with each CYP inhibitor in separate incubations for 30 min. Each inhibitor is specific for an individual cytochrome P450. The specific inhibitors used for CYPs 2C9, 2D6 and 3A were sulfaphenazole, quinidine and ketoconazole, respectively. Ketoconazole (CYP3A) is made up at 25 mM in DMSO and then diluted in buffer to a final concentration of 10 μM. Quinidine (CYP2D6) is made up at 5 mM in 50/50 acetonitrile/water and then diluted in buffer to a final concentration of 10 μM. Sulfaphenazole (CYP2C9) is made up at 100 mM in DMSO and then diluted in buffer to a final concentration of 5 μM. Samples are analyzed by LC-MS in positive or negative electrospray mode using a Waters Acquity Ultra Performance LC coupled to a MicroMass Q-T of-2 mass spectrometer.
# (§7) Data are analyzed using MetaboLynx™ version 4.1. […]
# [4] = biological target: T1, hCB-1; assay: hCB1-CHO agonist mode SPA GTP-γ-35S binding assay; format: biochemical; set-up: purchased Applied Cell Sciences, Rockville, Md; host or cells: CHO cell membranes
# Procedure: as §3
# hCB1-CHO membrane, GDP (1 μM final conc.), and saponin (10 μg/mL final conc., Sigma, St Louis, Mo.) are combined and prepared on ice as for the antagonist assays, above. Diluted test compounds, GTP-γ-^35S ([…] final conc.) and membranes are combined in the assay plate and incubated for 30 min. Then 1 mg/well Wheatgerm Agglutinin SPA beads (GE Healthcare, Piscataway, N.J.) are added, plates are sealed and vortexed and incubate for 1 hr. before spinning and counting in the same fashion as for the antagonist assays, above.
# Data are analyzed as follows: Background is subtracted from all wells. Percent agonist efficacy is determine by normalizing agonist/inverse agonist dose response data to the response obtained for a full agonist (methanandamide). Percent antagonist inhibition is calculated by first normalizing the data to the signal generated by a saturating concentration of the full agonist (methanandamide). Then the data are analyzed using a 4-parameter logistic reduced fit (Activity Base™ and XLFit3™ from IDBS, Emeryville, Calif.). Kb values are determined using a modification of the Cheng-Prusoff relationship: Kb=IC50/(1+[agonist]/EC50), where “IC50” is determined from a four parameter fit of displacement curves, “[agonist]” is the agonist challenge concentration (nM), and “EC50” is determined from a four parameter fit of a full agonist concentration response curve (Cheng and Prusoff 1973). Mean Kb values are calculated as a mean of at least three independent determinations±standard error of the mean (SEM). […]
# [5] = biological target: T3, hCB-2 (Homo sapiens, UniProt P34972); assay: hCB2-Sf9 agonist mode SPA GTP-γ-35S binding assay; format: biochemical; settings: read-out: hCB-2 SPA GTPγS Sf9 Membrane Agonist Relative EC50
# T3 construct: purchased Perkin Elmer, Boston, Mass; host or cells: Sf9 cell membranes
# Procedure: as §1
# Data are analyzed as follows: Background is subtracted from all wells. […] Percent antagonist inhibition is calculated by first normalizing the data to the signal generated by a saturating concentration of the full agonist (methanandamide). […]
# [6] = biological target: T1, hCB-1; assay: hCB1-CHO antagonist mode SPA GTP-γ-35S binding assay; format: biochemical; set-up: purchased Applied Cell Sciences, Rockville, Md; host or cells: CHO cell membranes; settings: antagonist mode vs methanandamide; read-out: hCB-1 SPA GTPγS CHO Membrane Antagonist Kb
# Procedure: as §3, §4, §5
# [7] = biological target: T3, hCB-2; assay: hCB2-Sf9 antagonist mode SPA GTP-γ-35S binding assay; format: biochemical; settings: antagonist mode vs methanandamide; read-out: hCB-2 SPA GTPγS Sf9 Membrane Antagonist Kb
# Procedure: as §1, §2
# [8] = biological target: T4, CYP2D6 (Homo sapiens, UniProt P10635); assay: Human CYP fingerprinting, quinidine inhibition; format: in vitro ADME; settings: 4 μM, human liver microsomes, 30 min, 10 μM quinidine
# T4 construct: pooled, mixed gender, human liver microsomes; from tissue; host or cells: pooled, mixed gender human liver microsomes
# Procedure: as §6, §7
# [9] = biological target: T5, CYP2C9 (Homo sapiens, UniProt P11712); assay: Human CYP fingerprinting, sulfaphenazole inhibition; format: in vitro ADME; settings: 4 μM, human liver microsomes, 30 min, 5 μM sulfaphenazole
# T5 construct: pooled, mixed gender, human liver microsomes; from tissue; host or cells: pooled, mixed gender human liver microsomes
# Procedure: as §6, §7
# T1 sequence (P21554 whole entry): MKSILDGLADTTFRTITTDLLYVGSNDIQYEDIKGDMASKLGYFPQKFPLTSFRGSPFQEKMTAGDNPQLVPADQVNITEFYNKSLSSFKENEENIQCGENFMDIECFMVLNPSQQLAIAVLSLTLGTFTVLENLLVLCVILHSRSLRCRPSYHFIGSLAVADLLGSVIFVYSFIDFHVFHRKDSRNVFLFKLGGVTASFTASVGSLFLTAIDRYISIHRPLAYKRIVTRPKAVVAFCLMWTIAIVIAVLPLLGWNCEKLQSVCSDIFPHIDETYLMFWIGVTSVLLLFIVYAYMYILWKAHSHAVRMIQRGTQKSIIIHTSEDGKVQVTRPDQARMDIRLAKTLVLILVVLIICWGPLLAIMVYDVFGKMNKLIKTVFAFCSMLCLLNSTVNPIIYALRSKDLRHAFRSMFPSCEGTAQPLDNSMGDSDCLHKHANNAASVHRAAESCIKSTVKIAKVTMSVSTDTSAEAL
# T3 sequence (P34972 whole entry): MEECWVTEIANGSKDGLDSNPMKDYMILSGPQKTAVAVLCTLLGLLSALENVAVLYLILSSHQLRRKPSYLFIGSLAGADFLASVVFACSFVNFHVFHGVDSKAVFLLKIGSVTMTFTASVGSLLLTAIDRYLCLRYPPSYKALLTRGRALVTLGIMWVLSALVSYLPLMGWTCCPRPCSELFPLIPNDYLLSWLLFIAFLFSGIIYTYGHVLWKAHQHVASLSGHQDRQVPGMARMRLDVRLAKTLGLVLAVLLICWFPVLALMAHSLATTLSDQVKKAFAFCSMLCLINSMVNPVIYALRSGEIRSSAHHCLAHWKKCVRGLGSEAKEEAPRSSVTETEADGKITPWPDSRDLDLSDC
# T2 sequence (P20272 whole entry): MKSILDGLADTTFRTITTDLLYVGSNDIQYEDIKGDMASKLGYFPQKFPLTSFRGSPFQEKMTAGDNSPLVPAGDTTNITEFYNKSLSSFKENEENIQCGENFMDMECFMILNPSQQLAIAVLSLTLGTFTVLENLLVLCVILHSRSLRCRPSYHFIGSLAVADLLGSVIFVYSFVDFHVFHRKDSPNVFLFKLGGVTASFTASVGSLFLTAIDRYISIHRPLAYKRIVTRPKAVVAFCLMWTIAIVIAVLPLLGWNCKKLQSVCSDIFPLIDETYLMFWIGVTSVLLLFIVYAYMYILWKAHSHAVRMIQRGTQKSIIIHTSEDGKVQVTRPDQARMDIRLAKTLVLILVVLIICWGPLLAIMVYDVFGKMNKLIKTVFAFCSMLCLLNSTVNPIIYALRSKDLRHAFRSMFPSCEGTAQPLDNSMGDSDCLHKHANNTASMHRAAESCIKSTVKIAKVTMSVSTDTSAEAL
# T5 sequence (P11712 whole entry): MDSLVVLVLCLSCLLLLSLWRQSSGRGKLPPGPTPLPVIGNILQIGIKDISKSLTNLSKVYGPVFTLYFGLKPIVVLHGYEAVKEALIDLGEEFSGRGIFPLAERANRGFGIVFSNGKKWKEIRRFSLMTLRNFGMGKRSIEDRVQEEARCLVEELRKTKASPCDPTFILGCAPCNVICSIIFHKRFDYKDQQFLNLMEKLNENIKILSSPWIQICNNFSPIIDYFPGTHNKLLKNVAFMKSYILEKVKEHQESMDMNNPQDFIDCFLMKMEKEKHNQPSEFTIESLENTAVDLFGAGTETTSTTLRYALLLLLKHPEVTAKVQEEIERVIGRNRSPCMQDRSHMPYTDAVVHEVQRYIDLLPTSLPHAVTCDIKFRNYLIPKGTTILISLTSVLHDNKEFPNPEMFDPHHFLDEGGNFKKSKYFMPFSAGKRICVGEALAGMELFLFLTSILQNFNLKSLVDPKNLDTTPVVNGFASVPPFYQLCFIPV
# T4 sequence (P10635 whole entry): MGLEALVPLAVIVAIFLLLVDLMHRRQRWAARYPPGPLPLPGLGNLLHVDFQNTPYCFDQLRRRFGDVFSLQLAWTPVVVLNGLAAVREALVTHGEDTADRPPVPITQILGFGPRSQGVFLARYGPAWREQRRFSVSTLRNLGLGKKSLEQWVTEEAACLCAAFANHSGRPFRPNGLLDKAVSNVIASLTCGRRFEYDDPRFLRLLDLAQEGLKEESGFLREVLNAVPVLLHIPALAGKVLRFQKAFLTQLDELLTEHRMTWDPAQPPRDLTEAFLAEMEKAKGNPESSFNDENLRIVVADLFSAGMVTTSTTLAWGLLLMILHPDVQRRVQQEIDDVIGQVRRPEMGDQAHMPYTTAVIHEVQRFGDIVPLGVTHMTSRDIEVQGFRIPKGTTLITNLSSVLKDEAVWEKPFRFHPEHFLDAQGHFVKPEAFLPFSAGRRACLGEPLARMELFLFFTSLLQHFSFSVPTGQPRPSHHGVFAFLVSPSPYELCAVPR
compound,measurement,setting,value
"CC(C)(N[C@@H]1C[C@H](c2cccc(OC(F)(F)F)c2)N(c2ccc(C#N)cc2)C1=O)c1cccc(C(F)(F)F)n1 [27 Tosylate salt, 4-[(3R,5R)-3-[1-methyl-1-(6-trifluoromethyl-pyridin-2-yl)-ethylamino]-2-oxo-5-(3-trifluoromethoxy-phenyl)-pyrrolidin-1-yl]-benzonitrile tosylate]",Kb,[1],1.77 nM
same,Kb,[2],0.238 nM
same,Risk of Drug Drug Interaction (DDI) CYP3A,[3],Low
same,EC50,"[4]; inverse agonism, read-out: hCB-1 SPA GTPγS CHO Membrane Agonist Relative EC50 inverse",0.943 nM
same,hCB-1 SPA GTPγS CHO Membrane Agonist % Relative Efficacy,[4]; normalized to full agonist methanandamide,−97.3%
same,EC50,[5],> 100000 nM
same,Kb,[6],0.179 nM
same,Kb,[7],> 18400 nM
same,Risk of Drug Drug Interaction (DDI) CYP2D6,[8],Low
same,Risk of Drug Drug Interaction (DDI) CYP2C9,[9],low (a reduction in metabolite peak area of less than 30% (relative to the uninhibited control incubation) receives a designation of low risk of Drug Drug Interaction (DDI))
